Legend:
IMC-1 (IL-2 20 ng/mL) [1] = test: drug sensitivity score (DSS) (DSS units); higher = more sensitive; extreme values may be limits of the assay; conditions: 72 h
[2] = test system: normal primary NK cells, pool 3 (3 donors) (IL-2 2.5 ng/mL); test: as above; conditions: 72 h
YT (IL-2 2.5 ng/mL) [3] = test: as above; conditions: 72 h
NK-92 (IL-2 2.5 ng/mL) [4] = test: as above; conditions: 72 h
SNK-6 (IL-2 2.5 ng/mL) [5] = test: as above; conditions: 72 h
NK-YS (IL-2 2.5 ng/mL) [6] = test: as above; conditions: 72 h
NKL (IL-2 2.5 ng/mL) [7] = test: as above; conditions: 72 h
DERL-7 (IL-2 2.5 ng/mL) [8] = test: as above; conditions: 72 h
[9] = test system: normal primary NK cells, pool 1 (3 donors) (IL-2 2.5 ng/mL); test: as above; conditions: 72 h
KHYG-1 (IL-2 2.5 ng/mL) [10] = test: as above; conditions: 72 h
[11] = test system: normal primary NK cells, pool 1 (3 donors), resting (IL-2 0 ng/mL); test: as above; conditions: 72 h
KAI3 (IL-2 2.5 ng/mL) [12] = test: as above; conditions: 72 h
[13] = test system: normal primary NK cells, pool 2 (3 donors) (IL-2 2.5 ng/mL); test: as above; conditions: 72 h
[14] = test system: normal NK cells expanded with K562-aAPC; test: percent inhibition of viability; higher = more inhibition; conditions: 72 h, IL-2 2.5 ng/mL
Experimental: (§1)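 Drug sensitivity and resistance testing on K562-aAPC-expanded normal NK cells: 5 concentrations (10-fold steps over a 10,000-fold range), 72 h at 37 °C, viability by CellTiter-Glo normalised to DMSO and benzethonium chloride controls; DSS from the fitted curve.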

IMC-1 (IL-2 20 ng/mL) [15] = test: as above; conditions: 72 h
[16] = test system: normal primary NK cells, pool 3 (3 donors) (IL-2 2.5 ng/mL); test: as above; conditions: 72 h
YT (IL-2 2.5 ng/mL) [17] = test: as above; conditions: 72 h
NK-92 (IL-2 2.5 ng/mL) [18] = test: as above; conditions: 72 h
SNK-6 (IL-2 2.5 ng/mL) [19] = test: as above; conditions: 72 h
NK-YS (IL-2 2.5 ng/mL) [20] = test: as above; conditions: 72 h
NKL (IL-2 2.5 ng/mL) [21] = test: as above; conditions: 72 h
DERL-7 (IL-2 2.5 ng/mL) [22] = test: as above; conditions: 72 h
[23] = test system: normal primary NK cells, pool 1 (3 donors) (IL-2 2.5 ng/mL); test: as above; conditions: 72 h
KHYG-1 (IL-2 2.5 ng/mL) [24] = test: as above; conditions: 72 h
[25] = test system: normal primary NK cells, pool 1 (3 donors), resting (IL-2 0 ng/mL); test: as above; conditions: 72 h
KAI3 (IL-2 2.5 ng/mL) [26] = test: as above; conditions: 72 h
[27] = test system: normal primary NK cells, pool 2 (3 donors) (IL-2 2.5 ng/mL); test: as above; conditions: 72 h
[28] = test system: normal NK cells expanded with K562-aAPC; test: drug sensitivity score (DSS) (DSS units); higher = more sensitive; extreme values may be limits of the assay; conditions: 72 h; IL-2 2.5 ng/mL
Experimental: as §1

O=C(Nc1c[nH]nc1-c1nc2ccc(CN3CCOCC3)cc2[nH]1)NC1CC1 [AT9283] (max concentration tested 1000 nM)
Conditions | drug sensitivity score
DERL-7 (IL-2 2.5 ng/mL) [8] | 16
IMC-1 (IL-2 20 ng/mL) [1] | 13.1
KAI3 (IL-2 2.5 ng/mL) [12] | 9.99
KHYG-1 (IL-2 2.5 ng/mL) [10] | 15.2
NK-92 (IL-2 2.5 ng/mL) [4] | 9.6
NK-YS (IL-2 2.5 ng/mL) [6] | 10.4
NKL (IL-2 2.5 ng/mL) [7] | 8.19
SNK-6 (IL-2 2.5 ng/mL) [5] | 15.5
YT (IL-2 2.5 ng/mL) [3] | 4.99
[2] | 0
[9] | 0.59
[11] | 0
[13] | 0
[28] | 11.1

percent inhibition of viability [%]
Conditions | 0.1 nM | 1 nM | 10 nM | 100 nM | 1000 nM
DERL-7 (IL-2 2.5 ng/mL) [22] | 0.91 | 0.04 | 7.11 | 81.9 | 98.3
IMC-1 (IL-2 20 ng/mL) [15] | -3.86 | -1.55 | -6.66 | 65.3 | 100
KAI3 (IL-2 2.5 ng/mL) [26] | -1.1 | -5.66 | 8.51 | 45.9 | 76.8
KHYG-1 (IL-2 2.5 ng/mL) [24] | 0.97 | -2.56 | 0.97 | 83.4 | 96
NK-92 (IL-2 2.5 ng/mL) [18] | 3.17 | 8.69 | 0.17 | 50.1 | 67.7
NK-YS (IL-2 2.5 ng/mL) [20] | -4.25 | -5.41 | -2.2 | 57.1 | 62.4
NKL (IL-2 2.5 ng/mL) [21] | -4.9 | -5.16 | -3.64 | 38.5 | 64.4
SNK-6 (IL-2 2.5 ng/mL) [19] | 13.2 | 8.33 | 13.9 | 73.1 | 96.5
YT (IL-2 2.5 ng/mL) [17] | 0.76 | -0.55 | 3.44 | 18.3 | 51.5
[14] | 0.7 | -5.39 | 3.23 | 57.8 | 65.9
[16] | -15.9 | -12.2 | -13.3 | -0.35 | 9.39
[23] | -12.6 | -14 | -13.3 | 12.2 | 12.7
[25] | -10.1 | -11 | -42.4 | -105 | -157
[27] | -12.3 | -10.8 | -12.5 | 0.3 | 9.78

CNc1nc(-c2ccc3c(N)n[nH]c3c2)cc(N2C[C@@H](C(=O)NC3CCCCC3)CC[C@H]2C)n1 (max concentration tested 10000 nM)
Conditions | drug sensitivity score
DERL-7 (IL-2 2.5 ng/mL) [8] | 13.6
IMC-1 (IL-2 20 ng/mL) [1] | 0
KAI3 (IL-2 2.5 ng/mL) [12] | 2.49
KHYG-1 (IL-2 2.5 ng/mL) [10] | 0
NK-92 (IL-2 2.5 ng/mL) [4] | 1.22
NK-YS (IL-2 2.5 ng/mL) [6] | 0.64
NKL (IL-2 2.5 ng/mL) [7] | 1.31
SNK-6 (IL-2 2.5 ng/mL) [5] | 0
YT (IL-2 2.5 ng/mL) [3] | 0
[2] | 2.05
[9] | 3.79
[11] | 2.84
[13] | 1.91
[28] | 5.66

percent inhibition of viability [%]
Conditions | 1 nM | 10 nM | 100 nM | 1000 nM | 10000 nM
DERL-7 (IL-2 2.5 ng/mL) [22] | -6.71 | 4.6 | 17.5 | 62.3 | 73.1
IMC-1 (IL-2 20 ng/mL) [15] | -3.83 | -6.62 | -4.53 | -20.3 | -19.2
KAI3 (IL-2 2.5 ng/mL) [26] | 5.2 | 2.8 | 14.8 | 12.4 | 22.3
KHYG-1 (IL-2 2.5 ng/mL) [24] | 2.18 | -0.82 | 1.06 | 6.54 | 6.11
NK-92 (IL-2 2.5 ng/mL) [18] | -8.7 | -9.38 | -10.8 | 12.7 | 15.9
NK-YS (IL-2 2.5 ng/mL) [20] | -0.39 | 1.82 | 1.37 | 11.8 | 12.3
NKL (IL-2 2.5 ng/mL) [21] | -8.02 | -17.1 | -8.23 | 7.46 | 19
SNK-6 (IL-2 2.5 ng/mL) [19] | -15.1 | -5.82 | -4.32 | -18.6 | -16.6
YT (IL-2 2.5 ng/mL) [17] | 0.91 | -0.65 | -0.96 | -0.24 | -1.61
[14] | -0.16 | 0.82 | 7.33 | 29 | 34.4
[16] | -9.17 | -11.9 | -6.95 | 18.4 | 14.4
[23] | -8.1 | -7.19 | -3.29 | 25.5 | 14.9
[25] | -13.3 | -12.7 | -3.91 | 21.5 | 9.91
[27] | -9.37 | -17 | -3.8 | 12.4 | 20.9

From the supplement of paper PMC5908809
